Literature values as cited in patent US20070224216A1, “Methods and Compositions Related to Antiviral Therapy Using Algae and Cyanobacteria” (priority 2004, published 2007).

| Substance | toxicity to uninfected cells (uninfected cells) | plasma concentrations after oral administration (rat, in vivo, po) | thrombosis in the rat jugular vein model (rats, oral) |
| --- | --- | --- | --- |
| calcium spirulan | No toxicity | – | – |
| heparin [oral heparins] | – | less than 1% | reduction of thrombosis |
